Tests used:
Hsp82 = Hsp82 (Saccharomyces cerevisiae, UniProt P02829); assay: Hsp82 ATPase activity, pyruvate kinase/lactate dehydrogenase enzymatic coupling system; type: biochemical; conditions: PK/LDH coupled kinetic method, NADH absorbance 340 nm, 1 μM Hsp82, 250 μM ATP, 37° C.
Text: The formation of ADP due to the ATPase activity of Hsp82 was utilized for developing another method of evaluating the enzymatic activity of this enzyme by the application of an enzymatic coupling system involving pyruvate kinase (PK) and lactate dehydrogenase (LDH). In this spectrophotometric method of the kinetic type, PK catalyses the formation of ATP and pyruvate from phosphoenol-pyruvate (PEP) and ADP produced by HSP82. The pyruvate formed, a substrate of LDH, is then converted to lactate in the presence of NADH. In this case, the decrease in the concentration of NADH, measured from the decrease in absorbance at a wavelength of 340 nm, is proportional to the concentration of ADP produced by HSP82. The test products are incubated in a reaction volume of 100 μl of buffer composed of 100 mM Hepes-NaOH (pH 7.5), 5 mM MgCl2, 1 mM DTT, 150 mM KCl, 0.3 mM NADH, 2.5 mM PEP and 250 μM ATP. This mixture is preincubated at 37° C. for 30 min before adding 3.77 units of LDH and 3.77 units of PK. The reaction is initiated by adding the product to be evaluated, at various concentrations, and Hsp82, at a concentration of 1 μM. Measurement of the enzymatic activity of Hsp82 is then performed continuously in a microplate reader, at 37° C., at a wavelength of 340 nm. The initial rate of the reaction is found by measuring the gradient of the tangent at the origin of the curve that is recorded. The enzymatic activity is expressed in μM of ADP formed per minute. The effect of the various products tested is expressed as percentage inhibition of ATPase activity according to the following code: • A: IC50<1 μM • B: 1 μM<IC50<10 μM • C: 10 μM<IC50<100 μM

Sequence of Hsp82 (P02829 whole entry): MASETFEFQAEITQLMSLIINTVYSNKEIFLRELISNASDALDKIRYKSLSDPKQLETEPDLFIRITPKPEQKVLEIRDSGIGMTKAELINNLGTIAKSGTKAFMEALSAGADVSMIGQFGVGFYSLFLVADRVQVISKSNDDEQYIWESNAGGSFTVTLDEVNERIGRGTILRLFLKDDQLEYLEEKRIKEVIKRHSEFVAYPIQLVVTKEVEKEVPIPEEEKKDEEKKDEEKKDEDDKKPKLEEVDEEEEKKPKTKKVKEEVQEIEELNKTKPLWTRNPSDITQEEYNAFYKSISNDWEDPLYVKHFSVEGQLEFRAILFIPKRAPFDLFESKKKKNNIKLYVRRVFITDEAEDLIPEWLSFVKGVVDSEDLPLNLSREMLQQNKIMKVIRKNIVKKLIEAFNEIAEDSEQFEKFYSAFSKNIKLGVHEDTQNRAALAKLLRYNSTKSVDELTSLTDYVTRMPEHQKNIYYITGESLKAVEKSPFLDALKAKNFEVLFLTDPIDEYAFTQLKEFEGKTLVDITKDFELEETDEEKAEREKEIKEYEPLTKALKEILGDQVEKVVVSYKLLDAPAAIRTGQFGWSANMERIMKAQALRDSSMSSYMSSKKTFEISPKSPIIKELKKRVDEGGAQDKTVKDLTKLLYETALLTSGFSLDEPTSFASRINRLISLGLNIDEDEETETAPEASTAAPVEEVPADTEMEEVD

Row | SMILES | IC50 (Hsp82) | melting point
1 | O=C(NC1c2ccccc2-c2c(-c3cnc4c(c3)CCCN4)cccc21)c1ccnc2[nH]ccc12 (racemic) [Example 18, [4-(5,6,7,8-tetrahydro-1,8-naphthyridin-3-yl)-9H-fluoren-9(R,S)-yl]-amide of 1H-pyrrolo[2,3-b]pyridine-4-carboxylic acid] | 1000 to 10000 nM | 
2 | O=C(NC1c2ccccc2-c2c(-c3cnc4ccccc4c3)cccc21)c1ccnc2[nH]ccc12 (racemic) [Example 3, [4-(quinolin-3-yl)-9H-fluoren-9(R,S)-yl)]-amide of 1H-pyrrolo[2,3-b]pyridine-4-carboxylic acid] | 1000 to 10000 nM | > 260 °C
3 | O=C(NC1c2ccccc2-c2c(-c3nc4ccccn4n3)cccc21)c1ccnc2[nH]ccc12 (racemic) [Example 9, (4-[1.2.4]triazolo[1,5-a]pyridin-2-yl-9H-fluoren-9(R,S)-yl)-amide of 1H-pyrrolo[2,3-b]pyridine-4-carboxylic acid] | 1000 to 10000 nM | 
4 | O=C(NC1c2ccccc2-c2c(C(=O)n3ncc4ccccc43)cccc21)c1ccnc2[nH]ccc12 (racemic) [Example 16, [4-(indazole-1-carbonyl)-9H-fluoren-9(R,S)-yl]-amide of 1H-pyrrolo[2,3-b]pyridine-4-carboxylic acid] | 1000 to 10000 nM | 220 °C
5 | Nc1ncc(Cl)c(C(=O)NC2c3ccccc3-c3c(-c4ncc[nH]4)cccc32)n1 (racemic) [Example 1, [4-(1H-imidazol-2-yl)-9H-fluoren-9(R,S)-yl]-amide of 2-amino-5-chloro-pyrimidine-4-carboxylic acid] | 1000 to 10000 nM | 
6 | O=C(NC1c2ccccc2-c2c(-c3ccc4ccccc4n3)cccc21)c1ccnc2[nH]ccc12 (racemic) [Example 8, [4-(quinolin-2-yl)-9H-fluoren-9-(R,S)-yl]-amide of 1H-pyrrolo[2,3-b]pyridine-4-carboxylic acid] | 1000 to 10000 nM | 260 °C
7 | O=C(NC1c2ccccc2-c2c(-c3cc4ccccc4o3)cccc21)c1ccnc2[nH]ccc12 (racemic) [Example 2, [4-(benzofuran-2-yl)-9H-fluoren-9(R,S)-yl)]-amide of 1H-pyrrolo[2,3-b]pyridine-4-carboxylic acid] | 1000 to 10000 nM | > 260 °C
8 | O=C(NC1c2ccccc2-c2c(-c3cnc4ccccc4c3)cccc21)c1c(Br)cnc2[nH]cnc12 (single isomer, unassigned) [Example 20] | 10000 to 100000 nM | 
9 | O=C(NC1c2ccccc2-c2c(-c3ccc(N4CCOCC4)nc3)cccc21)c1ccnc2[nH]ccc12 (racemic) [Example 14, [4-(2-morpholino-pyridin-5-yl)-9H-fluoren-9(R,S)-yl]-amide of 1H-pyrrolo[2,3-b]pyridine-4-carboxylic acid] | 1000 to 10000 nM | 
10 | O=C(NC1c2ccccc2-c2c(-c3cnc4ccccc4n3)cccc21)c1ccnc2[nH]ccc12 (racemic) [Example 12, [4-(quinoxalin-2-yl)-9H-fluoren-9(R,S)-yl]-amide of 1H-pyrrolo[2,3-b]pyridine-4-carboxylic acid] | 1000 to 10000 nM | 
11 | O=C(NC1c2ccccc2-c2c(-c3ccc(F)nc3)cccc21)c1ccnc2[nH]ccc12 (racemic) [Example 4, [4-(6-fluoro-pyridin-3-yl)-9H-fluoren-9-(R,S)-yl]-amide of 1H-pyrrolo[2,3-b]pyridine-4-carboxylic acid] | 1000 to 10000 nM | > 260 °C
12 | O=C(NC1c2ccccc2-c2c(C3=Nc4ccccc4OC3)cccc21)c1ccnc2[nH]ccc12 (racemic) [Example 10, [4-(1,4-benzoxazin-2H-3-yl)-9H-fluoren-9(R,S)-yl]-amide of 1H-pyrrolo[2,3-b]pyridine-4-carboxylic acid] | 1000 to 10000 nM | 

Results, then the compound that gave them:

Row | IC50 (Hsp82) | melting point | SMILES
13 | < 1000 nM |  | O=C(NC1c2ccccc2-c2c(-c3cc4ccccc4[nH]3)cccc21)c1ccnc2[nH]ccc12 (racemic) [Example 5, [4-(1H-indol-2-yl)-9H-fluoren-9-(R,S)-yl]-amide of 1H-pyrrolo[2,3-b]pyridine-4-carboxylic acid]
14 | < 1000 nM | > 260 °C | O=C(NC1c2ccccc2-c2c(-c3nc4ccccc4o3)cccc21)c1ccnc2[nH]ccc12 (racemic) [Example 6, [4-(benzoxazol-2-yl)-9H-fluoren-9-(R,S)-yl]-amide of 1H-pyrrolo[2,3-b]pyridine-4-carboxylic acid]
15 | < 1000 nM |  | Nc1ncc(Cl)c(C(=O)NC2c3ccccc3-c3c(-c4cnc5ccccc5c4)cccc32)n1 (racemic) [Example 15, [4-(quinolin-3-yl)-9H-fluoren-9(R,S)-yl]-amide of 2-amino-5-chloro-pyrimidine-4-carboxylic acid]
16 | < 1000 nM | 270 °C | O=C(NC1c2ccccc2-c2c(-c3cn4ccccc4n3)cccc21)c1ccnc2[nH]ccc12 (racemic) [Example 19, 4-{imidazo[1,2-a]pyridin-2-yl}-9H-fluoren-9-(R,S)-yl-amide of 1H-pyrrolo[2,3-b]pyridine-4-carboxylic acid]
17 | < 1000 nM | > 260 °C | O=C(NC1c2ccccc2-c2c(-c3cncnc3)cccc21)c1ccnc2[nH]ccc12 (racemic) [Example 7, [4-(pyrimidin-5-yl)-9H-fluoren-9-(R,S)yl]-amide of 1H-pyrrolo[2,3-b]pyridine-4-carboxylic acid]
18 | < 1000 nM |  | O=C(NC1c2ccccc2-c2c(-c3cnc4ccccc4c3)cccc21)c1ncnc2[nH]ccc12 (racemic) [Example 11, [4-(quinolin-3-yl)-9H-fluoren-9(R,S)-yl]-amide of 7H-pyrrolo[2,3-c]pyrimidine-4-carboxylic acid]
19 | < 1000 nM |  | O=C(NC1c2ccccc2-c2c(-c3cnc4[nH]ccc4c3)cccc21)c1ccnc2[nH]ccc12 (racemic) [Example 17, [4-(1H-pyrrolo[2,3-b]pyridin-5-yl)-9H-fluoren-9(R,S)-yl]-amide of 1H-pyrrolo[2,3-b]pyridine-4-carboxylic acid]
20 | < 1000 nM |  | O=C(NC1c2ccccc2-c2c(-c3cnc4ccccc4c3)cccc21)c1c(Br)cnc2[nH]cnc12 (racemic) [Example 13, [4-(quinolin-3-yl)-9H-fluoren-9(R,S)-yl]-amide of 6-bromo-3H-imidazo[4,5-b]pyridine-7-carboxylic acid]
21 | < 1000 nM |  | O=C(NC1c2ccccc2-c2c(-c3cnc4ccccc4c3)cccc21)c1c(Br)cnc2[nH]cnc12 (single isomer, unassigned) [Example 21]

Source: patent US8163750B2, “Fluorene derivatives, compositions containing the same and use thereof as inhibitors of the protein chaperone HSP 90” (Sanofi-Aventis, priority 2006, dated 2012)
